pIC50: −log10 of the molar value. “And” between values parts separate entries of the source, which are not always exact repeats. Equal entries are not always repeated. The source made the active and inactive calls.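 How the source made its calls: active means IC50 at or below 100 µM in the confirmatory dose response; inactive means the rest.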
The compounds below were run against 26S proteasome non-ATPase regulatory subunit 14 (Homo sapiens) (UniProt O00487) (assay: Rpn11 (PSMD14) deubiquitinase inhibitors, dose response, biochemical, fluorescence polarization, human 26S proteasome, uHTS hits (AID 686917)). Settings: purified human 26S proteasome, Ub4-pepOG fluorescence polarization.
Sequence of 26S proteasome non-ATPase regulatory subunit 14 (Homo sapiens) (O00487 whole entry, looked up): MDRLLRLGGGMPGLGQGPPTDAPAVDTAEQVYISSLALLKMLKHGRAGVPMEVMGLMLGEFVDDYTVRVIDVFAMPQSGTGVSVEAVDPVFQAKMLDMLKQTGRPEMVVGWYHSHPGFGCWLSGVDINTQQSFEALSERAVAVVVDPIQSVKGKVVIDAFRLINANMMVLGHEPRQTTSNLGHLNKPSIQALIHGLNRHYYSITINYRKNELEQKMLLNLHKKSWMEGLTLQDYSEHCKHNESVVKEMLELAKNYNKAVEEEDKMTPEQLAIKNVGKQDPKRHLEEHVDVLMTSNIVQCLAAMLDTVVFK
Work on `O=C(Sc1cccc2cccnc12)c1ccc([N+](=O)[O-])cc1` yielded a pIC50 of 5.00.
With `O=C(Sc1cccc2cccnc12)c1c(Cl)cccc1Cl` the pIC50 was 5.83.
`COC(=O)[C@H](C)N(C)C(=O)c1cnc2c(SSc3cccc4cc(C(=O)N(C)[C@@H](C)C(=O)OC)cnc34)cccc2c1` was tested, and the pIC50 was 5.37.
For `Cc1cccc(C(=O)Sc2cccc3cccnc23)c1`, the pIC50 was 5.90.
Compound `O=C(Sc1cccc2cccnc12)c1ccccc1` has a pIC50 of 5.28.
Work on `O=C(Sc1cccc2cccnc12)c1cccc(C(F)(F)F)c1` yielded a pIC50 of 5.07.
`Cc1ccccc1C(=O)Sc1cccc2cccnc12` showed a pIC50 of 4.96.
Work on `COC(=O)c1cnc2c(SSc3cccc4cc(C(=O)OC)cnc34)cccc2c1` yielded a pIC50 of 5.47.
`O=C(Sc1cccc2cccnc12)c1ccc(F)cc1F` gave a pIC50 of 5.01.
Compound `COc1ccc(C(=O)Sc2cccc3cccnc23)cc1` has a pIC50 of 5.36.
In the case of `O=C(Sc1cccc2cccnc12)c1ccc(F)c(F)c1`, the pIC50 was 5.43.
Work on `COC(=O)[C@H](C)NC(=O)c1cnc2c(SSc3cccc4cc(C(=O)N[C@@H](C)C(=O)OC)cnc34)cccc2c1` yielded a pIC50 of 5.30.
For `COC(=O)[C@@H]1CCCN1C(=O)c1cnc2c(SSc3cccc4cc(C(=O)N5CCC[C@H]5C(=O)OC)cnc34)cccc2c1`, the pIC50 was 5.47.
With `O=C(Sc1cccc2cccnc12)c1ccc(C(F)(F)F)cc1` the pIC50 was 5.43.
`O=C(Sc1cccc2cccnc12)c1ccccc1Cl` was tested, and the pIC50 was 5.24.
Compound `CCCc1ccc(C(=O)Sc2cccc3cccnc23)cc1` has a pIC50 of 5.58.
`O=C(Sc1cccc2cccnc12)c1ccccc1I` showed a pIC50 of 5.66.
`COC(=O)[C@H](CC(C)C)NC(=O)c1cnc2c(SSc3cccc4cc(C(=O)N[C@@H](CC(C)C)C(=O)OC)cnc34)cccc2c1` showed a pIC50 of 5.27.
In the case of `O=C(Sc1cccc2cccnc12)c1ccccc1F`, the IC50 was > 99 µM (inactive).
`O=C(Sc1cccc2cccnc12)c1ccccc1OC(F)(F)F` gave a pIC50 of 5.39.
Work on `O=C(Sc1cccc2cccnc12)c1ccc(F)cc1` yielded a pIC50 of 5.27.
`COc1ccc(C(=O)Sc2cccc3cccnc23)cc1F` gave a pIC50 of 5.45.
Work on `COc1ccc(C(=O)Sc2cccc3cccnc23)cc1OC` yielded a pIC50 of 5.04.
Compound `COc1cccc(C(=O)Sc2cccc3cccnc23)c1` has a pIC50 of 5.83.
`O=C(Sc1cccc2cccnc12)C1CCCCC1` was tested, and the pIC50 was 6.18.
`CC[C@@H](C)[C@H](NC(=O)c1cnc2c(SSc3cccc4cc(C(=O)N[C@H](C(=O)O)[C@H](C)CC)cnc34)cccc2c1)C(=O)O` gave a pIC50 of 5.74.
`CC[C@@H](C)[C@H](NC(=O)c1cnc2c(SSc3cccc4cc(C(=O)N[C@H](C(=O)OC)[C@@H](C)CC)cnc34)cccc2c1)C(=O)OC` was tested, and the pIC50 was 5.75.
`O=C(Sc1cccc2cccnc12)c1ccccc1Br` showed a pIC50 of 5.42.
`O=C(O)c1cnc2c(SSc3cccc4cc(C(=O)O)cnc34)cccc2c1` was tested, and the pIC50 was 5.90.
With `CCOc1ccccc1C(=O)Sc1cccc2cccnc12` the pIC50 was 5.43 and 4.84.
In the case of `CC(C)C[C@H](NC(=O)c1cnc2c(SSc3cccc4cc(C(=O)N[C@@H](CC(C)C)C(=O)O)cnc34)cccc2c1)C(=O)O`, the pIC50 was 5.60.
For `CC(C)(C)OC(=O)CCNC(=O)c1cnc2c(SSc3cccc4cc(C(=O)NCCC(=O)OC(C)(C)C)cnc34)cccc2c1`, the pIC50 was 5.31.
Compound `COC(=O)C[C@H](NC(=O)c1cnc2c(SSc3cccc4cc(C(=O)N[C@@H](CC(=O)OC)C(=O)OC)cnc34)cccc2c1)C(=O)OC` has a pIC50 of 5.46.
`C[C@@H](C(=O)O)N(C)C(=O)c1cnc2c(SSc3cccc4cc(C(=O)N(C)[C@@H](C)C(=O)O)cnc34)cccc2c1` was tested, and the pIC50 was 5.23.
With `COC(=O)[C@H](CO)NC(=O)c1cnc2c(SSc3cccc4cc(C(=O)N[C@@H](CO)C(=O)OC)cnc34)cccc2c1` the pIC50 was 5.31.
Work on `COC(=O)[C@H](C)NC(=O)c1ccnc2c(SSc3cccc4c(C(=O)N[C@@H](C)C(=O)OC)ccnc34)cccc12` yielded a pIC50 of 5.36.
Work on `O=C(Sc1cccc2cccnc12)c1ccccc1[N+](=O)[O-]` yielded a pIC50 of 5.28.
`O=C(Sc1cccc2cccnc12)c1ccc2c(c1)OCO2` was tested, and the pIC50 was 4.85.
`N#Cc1cccc(C(=O)Sc2cccc3cccnc23)c1` showed a pIC50 of 4.80.
`COc1ccccc1C(=O)Sc1cccc2cccnc12` was tested, and the pIC50 was 5.34 and 5.68.
`CC(C)Cc1ccc(C(=O)Sc2cccc3cccnc23)cc1` was tested, and the pIC50 was 5.61.
With `COC(=O)[C@@H](NC(=O)c1cnc2c(SSc3cccc4cc(C(=O)N[C@H](C(=O)OC)C(C)C)cnc34)cccc2c1)C(C)C` the pIC50 was 5.40.
With `O=C(Sc1cccc2cccnc12)c1cccc2ccccc12` the pIC50 was 5.40.
Compound `Cc1ccc(C(=O)Sc2cccc3cccnc23)cc1` has a pIC50 of 4.84.
In the case of `N#Cc1ccc(C(=O)Sc2cccc3cccnc23)cc1`, the IC50 was > 99 µM (inactive).
In the case of `O=C(Sc1cccc2cccnc12)c1cccc(Cl)c1`, the pIC50 was 5.93.
`O=C(O)[C@@H]1CCCN1C(=O)c1cnc2c(SSc3cccc4cc(C(=O)N5CCC[C@H]5C(=O)O)cnc34)cccc2c1` was tested, and the pIC50 was 5.77.
